Literature values, collected in patent US20180243207A1, “DUAL-RELEASE FLEXIBLE F[…] IN […] HOSPICE CARES OF ELDERLY PATIENTS” (priority 2017, published 2018).

Experiments:
[1] = target: T1, α3-GABAA receptors (Homo sapiens, UniProt P18507+P34903)
T1 sequence (P34903 29-492): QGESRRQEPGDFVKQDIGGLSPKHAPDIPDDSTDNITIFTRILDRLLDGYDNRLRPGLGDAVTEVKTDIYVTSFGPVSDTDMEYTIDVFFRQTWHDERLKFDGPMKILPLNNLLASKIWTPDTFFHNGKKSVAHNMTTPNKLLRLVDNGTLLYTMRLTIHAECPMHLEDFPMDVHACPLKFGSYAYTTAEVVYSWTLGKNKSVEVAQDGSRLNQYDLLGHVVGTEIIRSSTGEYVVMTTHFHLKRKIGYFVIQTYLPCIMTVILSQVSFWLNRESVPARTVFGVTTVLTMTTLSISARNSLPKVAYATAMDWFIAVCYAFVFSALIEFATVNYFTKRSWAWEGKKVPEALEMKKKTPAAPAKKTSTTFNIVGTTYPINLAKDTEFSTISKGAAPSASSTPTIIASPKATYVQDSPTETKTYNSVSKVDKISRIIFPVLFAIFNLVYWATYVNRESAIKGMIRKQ
T1 sequence (P18507 40-467 limits assumed): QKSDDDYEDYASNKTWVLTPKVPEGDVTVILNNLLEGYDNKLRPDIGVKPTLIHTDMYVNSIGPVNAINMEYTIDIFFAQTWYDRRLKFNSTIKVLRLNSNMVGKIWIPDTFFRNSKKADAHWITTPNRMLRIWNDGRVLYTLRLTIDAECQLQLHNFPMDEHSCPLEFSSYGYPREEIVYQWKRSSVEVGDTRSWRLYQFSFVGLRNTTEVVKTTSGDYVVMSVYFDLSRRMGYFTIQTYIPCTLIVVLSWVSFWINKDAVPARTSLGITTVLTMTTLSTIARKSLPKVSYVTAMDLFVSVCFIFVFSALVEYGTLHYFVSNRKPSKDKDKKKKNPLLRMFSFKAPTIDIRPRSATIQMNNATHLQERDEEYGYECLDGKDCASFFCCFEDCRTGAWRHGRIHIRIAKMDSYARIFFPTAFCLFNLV
T1 sequence (P28472 26-473 partner): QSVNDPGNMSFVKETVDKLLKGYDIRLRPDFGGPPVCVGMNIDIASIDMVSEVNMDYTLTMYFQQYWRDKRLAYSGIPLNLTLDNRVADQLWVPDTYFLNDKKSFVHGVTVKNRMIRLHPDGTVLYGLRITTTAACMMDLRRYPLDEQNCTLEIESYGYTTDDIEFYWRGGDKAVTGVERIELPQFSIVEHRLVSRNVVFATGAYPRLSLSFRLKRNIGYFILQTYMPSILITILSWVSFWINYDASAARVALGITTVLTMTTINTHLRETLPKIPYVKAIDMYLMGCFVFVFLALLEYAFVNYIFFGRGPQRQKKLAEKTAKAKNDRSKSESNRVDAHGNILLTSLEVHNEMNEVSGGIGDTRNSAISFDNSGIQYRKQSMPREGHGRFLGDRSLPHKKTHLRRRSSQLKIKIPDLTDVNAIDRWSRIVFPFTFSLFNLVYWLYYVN

[2] = target: T2, α2-GABAA receptors (Homo sapiens, UniProt P18507+P47869)
T2 sequence (P47869 29-451): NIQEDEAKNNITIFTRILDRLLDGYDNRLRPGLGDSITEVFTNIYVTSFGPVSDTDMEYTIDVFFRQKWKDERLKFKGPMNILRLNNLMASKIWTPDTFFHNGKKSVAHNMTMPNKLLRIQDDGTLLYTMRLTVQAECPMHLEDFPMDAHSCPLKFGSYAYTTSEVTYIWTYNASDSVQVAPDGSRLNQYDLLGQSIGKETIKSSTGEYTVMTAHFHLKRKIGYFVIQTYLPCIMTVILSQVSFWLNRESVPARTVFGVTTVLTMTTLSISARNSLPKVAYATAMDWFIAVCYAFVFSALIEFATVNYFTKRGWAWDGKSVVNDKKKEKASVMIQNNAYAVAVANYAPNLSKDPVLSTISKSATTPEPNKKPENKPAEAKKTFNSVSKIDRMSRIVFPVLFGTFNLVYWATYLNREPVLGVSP
T2 sequence (P18507 40-467 limits assumed): T1 sequence (P18507 40-467 limits assumed)
T2 sequence (P28472 26-473 partner): T1 sequence (P28472 26-473 partner)

For `O=C1Nc2ccc(Cl)cc2C(c2ccccc2Cl)=NC1O` (centres unmarked) [Lorazepam], the “affinity to α3-GABAA receptors” value [1] is given as “high” and the “affinity to α2-GABAA receptors” value [2] is given as “intermediate”.
